Experimental findings from US9670204B2, “Compounds and pharmaceutical compositions thereof for the treatment of inflammatory disorders” (Galapagos NV, priority 2013, dated 2017) are described below.

The target in the first assay is T1, hENPP2 (UniProtKB/SwissProt Q13822) (Homo sapiens (Human), UniProt Q13822). In words: hENPP2 biochemical assay, LPC as substrate. The following applies: LPC (palmitoyl 16:0) as substrate. How it is done: The principle of the assay consists in quantifying the released choline with an enzymatic method using choline oxidase and peroxidase. Choline oxydation by choline oxydase releases betaine and peroxide. The latter is quantified in presence of HRP that converts the peroxide detection agent TOOS and 4-aminoantipyrine into quinoneimine dye. The appearance of quinoneimine dye is measured spectrophotometrically at 555 nm and is proportional to the amount of choline released by ENPP2. Inhibition of ENPP2 will result in a decrease of the signal.
Compound IC50 values are determined in a hENPP2 (UniProtKB/SwissProt Sequence ref Q13822) biochemical assay using LPC as substrate.
The enzyme is diluted in 50 mM Tris-HCl pH 8.5, 500 mM NaCl, 5 mM KCl, 10 mM CaCl2, 0.1% fatty acid free BSA in a total volume of 10 μL. the reaction is started by the addition of 10 μL of 150 μM LPC (palmitoyl 16:0) diluted in the same buffer as described above and the mixture is incubated at 37° C. for 30 min. The reaction is terminated and choline quantified by the addition of a 25 μL of a mixture containing 0.6 U/mL of choline oxidase, 0.6 U/mL of peroxydase, 1.8 mM TOOS, 1.2 mM amino-antipyrine, 20 mM EGTA (stop-developer solution) diluted in the buffer described above. […] is read on the Envision after an incubation of 30 min at room temperature (Excitation 555 nm, excitation light=70%).
Take `CCc1nc2ccc(C3=CCN(S(=O)(=O)C(F)(F)F)CC3)cn2c1N(C)c1nc(-c2ccc(Cl)cc2)cs1` [Compound 210, 4-(4-chlorophenyl)-N-(2-ethyl-6-(1-(trifluoromethylsulfonyl)-1,2,3,6-tetrahydropyridin-4-yl)imidazo[1,2-a]pyridin-3-yl)-N-methylthiazol-2-amine]: the IC50 is more than 1000 nM.

In turn, `CCc1nc2ccc(C3CCN(CC(=O)N(C)C)CC3)cn2c1N(C)c1nc(-c2ccc(F)cc2)c(CO)s1` [Compound 157, 2-(4-(2-ethyl-3-((4-(4-fluorophenyl)-5-(hydroxymethyl)thiazol-2-yl)(methyl)amino)imidazo[1,2-a]pyridin-6-yl)piperidin-1-yl)-N,N-dimethylacetamide] displayed an IC50 of more than 1000 nM.

As for `CCc1nc2ccc(C3=CCN(S(=O)(=O)CCCOC(C)=O)CC3)cn2c1N(C)c1nc(-c2ccc(F)cc2)cs1` [Compound 74, Acetic acid 3-[4-(2-ethyl-3-{[4-(4-fluoro-phenyl)-thiazol-2-yl]-methyl-amino}-imidazo[1,2-a]pyridin-6-yl)-3,6-dihydro-2H-pyridine-1-sulfonyl]-propyl ester], the IC50 is more than 1000 nM.

As to `CCc1nc2ccc(N3CCN(S(=O)(=O)CCCN4CCCC4)CC3)cn2c1N(C)c1nc(-c2ccc(F)cc2)cs1` [Compound 57, N-(2-ethyl-6-(4-(3-(pyrrolidin-1-yl)propylsulfonyl)piperazin-1-yl)imidazo [1,2-a]pyridin-3-yl)-4-(4-fluorophenyl)-N-methylthiazol-2-amine], the IC50 was more than 1000 nM.

The molecule `CCc1nc2ccc(C3=CCN(S(C)(=O)=O)CC3)cn2c1N(C)c1nc(-c2ccc(OC)cc2)cs1` [Compound 71, N-(2-ethyl-6-(1-(methylsulfonyl)-1,2,3,6-tetrahydropyridin-4-yl)imidazo[1,2-a]pyridin-3-yl)-4-(4-methoxyphenyl)-N-methylthiazol-2-amine] gave an IC50 of more than 1000 nM.

The molecule `CCc1nc2ccc(C3CCN(S(C)(=O)=O)CC3)cn2c1N(C)c1nc(-c2ccc(F)cc2CO)cs1` [Compound 107, (2-(2-((2-ethyl-6-(1-(methylsulfonyl)piperidin-4-yl)imidazo[1,2-a]pyridin-3-yl)(methyl)amino)thiazol-4-yl)-5-fluorophenyl)methanol] yielded a concentration for half-maximal inhibition (IC50) of 500 to 1000 nM.

For the molecule `CCc1nc2ccc(N3CCN(CC(=O)N4CC(CO)C4)CC3)cn2c1N(C)c1nc(-c2ccc(F)cc2)cs1` [Compound 34, 2-(4-(2-ethyl-3-((4-(4-fluorophenyl)thiazol-2-yl)(methyl)amino)imidazo[1,2-a]pyridin-6-yl)piperazin-1-yl)-1-(3-(hydroxymethyl)azetidin-1-yl)ethanone], the IC50 was in the range of 100 to 500 nM.

As for `CCc1nc2ccc(N3CCN(C(=O)C4(N)CC4)CC3)cn2c1N(C)c1nc(-c2ccc(F)cc2)cs1` [Compound 202, (1-aminocyclopropyl)(4-(2-ethyl-3-((4-(4-fluorophenyl)thiazol-2-yl)(methyl)amino)imidazo[1,2-a]pyridin-6-yl)piperazin-1-yl)methanone], the IC50 is more than 1000 nM.

`CCc1nc2ccc(N3CCNCC3)cn2c1N(C)c1nc(-c2ccc(F)cc2C#N)c(C)s1` [Compound 161, 2-(2-((2-ethyl-6-(piperazin-1-yl)imidazo[1,2-a]pyridin-3-yl)(methyl)amino)-5-methylthiazol-4-yl)-5-fluorobenzonitrile]: the IC50 is more than 1000 nM.

Take `CCc1nc2ccc(N3CC(N)C3)cn2c1N(C)c1nc(-c2ccc(F)cc2)cs1` [Compound 177, [6-(3-Amino-azetidin-1-yl)-2-ethyl-imidazo[1,2-a]pyridin-3-yl]-[4-(4-fluoro-phenyl)-thiazol-2-yl]-methyl-amine]: the IC50 lay within 500 to 1000 nM.

In the case of `CCc1nc2ccc(C3CCN(S(C)(=O)=O)CC3)cn2c1N(C)c1nc(-c2ccc(OC(F)(F)F)cc2)c(CO)s1` [Compound 148, (2-((2-ethyl-6-(1-(methylsulfonyl)piperidin-4-yl)imidazo [1,2-a]pyridin-3-yl)(methyl)amino)-4-(4-(trifluoromethoxy)phenyl)thiazol-5-yl) methanol], the IC50 is more than 1000 nM.

Consider `CCc1nc2ccc(C3CCN(CC(=O)N(C)CC#N)CC3)cn2c1N(C)c1nc(-c2ccc(F)cc2)cs1` [Compound 121, N-(cyanomethyl)-2-(4-(2-ethyl-3-((4-(4-fluorophenyl)thiazol-2-yl)(methyl)amino)imidazo[1,2-a]pyridin-6-yl)piperidin-1-yl)-N-methylacetamide], for which the IC50 is 500 to 1000 nM.

`CCc1nc2ccc(C3CCN(CC4CNC(=O)O4)CC3)cn2c1N(C)c1nc(-c2ccc(F)cc2)cs1` (stereo not shown) [Compound 122, 5-((4-(2-ethyl-3-((4-(4-fluorophenyl)thiazol-2-yl)(methyl)amino)imidazo[1,2-a]pyridin-6-yl)piperidin-1-yl)methyl)oxazolidin-2-one] yielded an IC50 of 500 to 1000 nM.

Molecule `CCc1nc2ccc(N3CCN(CC(=O)N4CCCC4)CC3)cn2c1N(C)c1nc(-c2ccc(F)cc2)cs1` [Compound 31, 2-(4-(2-ethyl-3-((4-(4-fluorophenyl)thiazol-2-yl)(methyl)amino)imidazo[1,2-a]pyridin-6-yl)piperazin-1-yl)-1-(pyrrolidin-1-yl)ethanone] came in with a half-inhibitory concentration (IC50) of 0.01 to 100 nM.

The next assay has as its target T1, hENPP2. In words: fluorescent hENPP2 biochemical assay, FS-3 as substrate. The following applies: read-out: FS3-IC50. How it is done: Compound IC50 values are determined in a fluorescent hENPP2 (UniProtKB/SwissProt Sequence ref Q13822) biochemical assay using the fluorogenic autotaxin substrate FS-3 as substrate. FS-3 is a doubly labeled analog of LPC wherein the fluorophore is quenched through intramolecular energy transfer. Without hENPP2, the emission of the probe is quenched. If the substrate is hydrolyzed by hENPP2, the emission of the probe is not quenched anymore resulting in a fluorescence increase.
The enzyme is diluted in 50 mM Tris-HCl pH 8.0, 250 mM NaCl, 5 mM KCl, 1 mM MgCl2, 1 mM CaCl2, 0.1% fatty acid free BSA in a total volume of 20 μL. Enzyme mixture is added to compounds and the resulting mixture is incubated for 30 min at room temperature under shaking. The reaction is started by the addition of 20 μL of 0.75 μM FS-3 diluted in the same buffer as described above and the mixture is incubated at 30° C. for 30 min. Fluorescence is read on the Envision (Excitation 485 nm, emission 520 nm).
For the molecule `CCc1nc2ccc(C3=CCN(S(=O)(=O)C(F)(F)F)CC3)cn2c1N(C)c1nc(-c2ccc(Cl)cc2)cs1` [Compound 210, 4-(4-chlorophenyl)-N-(2-ethyl-6-(1-(trifluoromethylsulfonyl)-1,2,3,6-tetrahydropyridin-4-yl)imidazo[1,2-a]pyridin-3-yl)-N-methylthiazol-2-amine], the IC50 was in the range of 0.01 to 100 nM.

In the case of `CCc1nc2ccc(C3CCN(CC(=O)N(C)C)CC3)cn2c1N(C)c1nc(-c2ccc(F)cc2)c(CO)s1` [Compound 157, 2-(4-(2-ethyl-3-((4-(4-fluorophenyl)-5-(hydroxymethyl)thiazol-2-yl)(methyl)amino)imidazo[1,2-a]pyridin-6-yl)piperidin-1-yl)-N,N-dimethylacetamide], the IC50 lay within 0.01 to 100 nM.

As for `CCc1nc2ccc(C3=CCN(S(=O)(=O)CCCOC(C)=O)CC3)cn2c1N(C)c1nc(-c2ccc(F)cc2)cs1` [Compound 74, Acetic acid 3-[4-(2-ethyl-3-{[4-(4-fluoro-phenyl)-thiazol-2-yl]-methyl-amino}-imidazo[1,2-a]pyridin-6-yl)-3,6-dihydro-2H-pyridine-1-sulfonyl]-propyl ester], the IC50 fell in the range of 0.01 to 100 nM.

With `CCc1nc2ccc(N3CCN(S(=O)(=O)CCCN4CCCC4)CC3)cn2c1N(C)c1nc(-c2ccc(F)cc2)cs1` [Compound 57, N-(2-ethyl-6-(4-(3-(pyrrolidin-1-yl)propylsulfonyl)piperazin-1-yl)imidazo [1,2-a]pyridin-3-yl)-4-(4-fluorophenyl)-N-methylthiazol-2-amine], the IC50 was 0.01 to 100 nM.

Take `CCc1nc2ccc(N3CCNCC3)cn2c1N(C)c1nc(-c2ccc(F)cc2)cs1` [Gen-10-e]: the IC50 was 0.01 to 100 nM.

Regarding `CCc1nc2ccc(C3=CCN(C(=O)OC(C)(C)C)CC3)cn2c1N(C)c1nc(-c2ccc(Cl)cc2)cs1` [Compound 230, tert-butyl 4-(3-((4-(4-chlorophenyl)thiazol-2-yl)(methyl)amino)-2-ethylimidazo[1,2-a]pyridin-6-yl)-5,6-dihydropyridine-1(2H)-carboxylate], the IC50 was in the range of 0.01 to 100 nM.

Consider `CCc1nc2ccc(C3=NC(C)CO3)cn2c1N(C)c1nc(-c2ccc(F)cc2)cs1` (stereo not shown) [Compound 237, N-(2-ethyl-6-(4-methyl-4,5-dihydrooxazol-2-yl)imidazo[1,2-a]pyridin-3-yl)-4-(4-fluorophenyl)-N-methylthiazol-2-amine], for which the IC50 fell in the range of 0.01 to 100 nM.

`CCc1nc2ccc(N3CCN(C(=O)OC(C)(C)C)CC3)cn2c1N(C)c1nc(-c2ccc(Cl)cc2)cs1` [Compound 234, tert-butyl 4-(3-((4-(4-chlorophenyl)thiazol-2-yl)(methyl)amino)-2-ethylimidazo[1,2-a]pyridin-6-yl)piperazine-1-carboxylate]: the IC50 is 0.01 to 100 nM.

Take `CCc1nc2ccc(C3=NCC(C)O3)cn2c1N(C)c1nc(-c2ccc(F)cc2)cs1` (stereo not shown) [Compound 236, N-(2-ethyl-6-(5-methyl-4,5-dihydrooxazol-2-yl)imidazo[1,2-a]pyridin-3-yl)-4-(4-fluorophenyl)-N-methylthiazol-2-amine]: the IC50 was 100 to 500 nM.

In the case of `CCc1nc2ccc(C3=CCSCC3)cn2c1N(C)c1nc(-c2ccc(Cl)cc2)cs1` [Compound 231, 4-(4-chlorophenyl)-N-(6-(3,6-dihydro-2H-thiopyran-4-yl)-2-ethylimidazo[1,2-a]pyridin-3-yl)-N-methylthiazol-2-amine], the IC50 is 0.01 to 100 nM.

`CCc1nc2ccc(C3CCN(S(C)(=O)=O)CC3)cn2c1N(C)c1nc(-c2ccc(F)cc2)c(Br)s1` [Compound 135, 5-bromo-N-(2-ethyl-6-(1-(methylsulfonyl)piperidin-4-yl)imidazo [1,2-a]pyridin-3-yl)-4-(4-fluorophenyl)-N-methylthiazol-2-amine]: the half-maximal inhibitory concentration (IC50) fell in the range of 0.01 to 100 nM.

As for `CCc1nc2ccc(C3CCN(CC4CCCCC4)CC3)cn2c1N(C)c1nc(-c2ccc(F)cc2)cs1` [Compound 235, N-(6-(1-(cyclohexylmethyl)piperidin-4-yl)-2-ethylimidazo[1,2-a]pyridin-3-yl)-4-(4-fluorophenyl)-N-methylthiazol-2-amine], the IC50 was in the range of 0.01 to 100 nM.

`CCc1nc2ccc(C3=NC(C(=O)O)CO3)cn2c1N(C)c1nc(-c2ccc(F)cc2)cs1` (stereo not shown) [Compound 238, 2-(2-ethyl-3-((4-(4-fluorophenyl)thiazol-2-yl)(methyl)amino)imidazo[1,2-a]pyridin-6-yl)-4,5-dihydro-oxazole-4-carboxylic acid]: the IC50 was 100 to 500 nM.

Turning to `CCc1nc2ccc(N3CCC(F)(F)CC3)cn2c1N(C)c1nc(-c2ccc(F)cc2)cs1` [Compound 232, N-(6-(4,4-difluoropiperidin-1-yl)-2-ethylimidazo[1,2-a]pyridin-3-yl)-4-(4-fluorophenyl)-N-methylthiazol-2-amine], the IC50 was 0.01 to 100 nM.

A word on the IC50: it is the midpoint of a concentration-inhibition curve.
